The test system of the data set is S. aureus strain ATCC 33591 (MRSA-strain). As for the experimental part: Organ samples were thawed and homogenized using a Polytron tissue homogenizer after addition of 3 mL isotonic sodium chloride solution. First, a calibration curve was prepared by spiking different concentrations of CorA into the respective matrix from CD-1 mice. Caffeine was used as an internal standard. In addition, quality control samples (QCs) were prepared for CorA for every matrix. For PD samples, calibration curve and QCs were prepared for levofloxacin using the same protocol. The following extraction procedure was used: 50 µL of a sample (calibration sample, QCs, PK or PD sample) was extracted with 20 µL of acetic acid in water (10/90 (v/v)) and 30 µL acetonitrile for 5 min at 800 rpm on an Eppendorf MixMate® vortex mixer. Then, samples were spun down for 20 min at 4 °C and 4000 rpm and supernatants were transferred to new Greiner 96-well V-bottom plates. Samples were analyzed using an Agilent 1290 Infinity II HPLC system (Waldbronn, Germany) coupled to an AB Sciex QTrap6500plus mass spectrometer (Darmstadt, Germany). LC conditions were as follows: column: Agilent Zorbax Exlipse Plus C18, 50 × 2.1 mm, 1.8 µm; temperature: 30 °C; injection volume: 5 µL per sample; flow rate: 800 µL/min. Samples were run under buffered conditions: A: 95% water + 5% acetonitrile + 5 mM ammonium acetate + 40 µL/L acetic acid; B: 95% acetonitrile + 5% water + 5 mM ammonium acetate + 40 µL/L acetic acid. The gradient was as follows: 99% A at 0 min, 99% A until 0.1 min, 99–0% A from 0.1 min to 4.0 min, 0% A until 4.5 min. Mass transitions for controls and compounds are depicted in Table S1. Peaks of PK samples were quantified using the calibration curve. The accuracy of the calibration curve was determined using QCs independently prepared on different days. PK parameters were determined using a non-compartmental analysis with PKSolver.
Inocula were prepared as described previously with the modification that isotonic sodium chloride solution was used instead of PBS [25]. For the neutropenic thigh and the neutropenic lung infection model the S. aureus strain ATCC 33591 (MRSA-strain) was used. For the neutropenic lung infection model an inoculum of 2 × 10^9 cfu/mL was used. For the neutropenic thigh infection model an inoculum of 7 × 10^5 cfu/mL was used.
The model was conducted as described previously. In brief, the following groups were used: (1) inoculum control group with terminal endpoint at 2 h post infection to determine baseline inoculum in vivo; (2) vehicle-treated group receiving 20 mg/kg SC tramadol and vehicle (PEG400/PBS (80:20 (v/v)); (3) levofloxacin group 5 mg/kg IP three times a day (TID) (t = 2, 6 and 10 h post infection); (4) CorA 60 mg/kg IP TID (t = 2, 6 and 10 h post infection) and (5) CorA 100 mg/kg IP BID (t = 2 and 6 h post infection). The endpoint for groups no. 2–5 was 24 h post infection. A solution of […].

The text below walks through data of article PMC9860980, “Pharmacokinetics and Pharmacodynamics (PK/PD) of Corallopyronin A against Methicillin-Resistant Staphylococcus aureus” (Pharmaceutics, 2022).

Structures are written as SMILES. Read-outs that look alike come from different tables or passages of the source.

As for `C/C=C/C/C=C(\C)C(O)CC/C(C)=C/C=C(\C)C(=O)c1c(O)cc([C@H](C)CC/C=C/NC(=O)OC)oc1=O` (stereo partly shown) [CorA, Corallopyronin A], the “terminal thigh concentrations lower than in the group at 100 mg/kg IP BID” value (60 mg/kg IP BID (so in the source) vs 100 mg/kg IP BID, thigh) is reported as “more than 10 fold”. Moreover, the “terminal level in lung tissue” value reads like this: (60 mg/kg IP TID) “not detected”; (100 mg/kg IP BID) “detected at low levels”. Also, under “60 mg/kg IP TID, 24 h post infection, secondary seeding, vs vehicle”, the “bacterial burden in lung tissue” value is “did not show any effect”. Further, the “bacterial burden in thigh tissue” value (60 mg/kg IP TID, 24 h post infection, vs vehicle) is recorded as “did not show any effect”. For the same compound, under “100 mg/kg IP BID vs 60 mg/kg IP TID, liver”, the “terminal liver levels lower than at 60 mg/kg IP TID” value is reported as “more than 5 fold”. Besides, the “bacterial burden in thigh” value (100 mg/kg IP BID, 24 h post infection) was “significant reduction”.
